# Test results published in US10280150B2 (FORMA TM2, Inc., priority 2014, dated 2019).
# Assays:
# [1] = tested on: HCT116 isogenic IDH1-R132C mutant cells; assay: Cellular 2-HG assay using HCT116 mutant IDH1 cells (R132C), RapidFire mass spectrometry; assay type: cell-based; settings: Homo sapiens, HCT-116; cellular 2-HG level, HCT116 IDH1-R132C cells, 24 hours; read-out: HCT116 IDH1 R132C IC50 (Range)
# Protocol: (§1) Example 106—Cellular 2-HG assay using HCT116 mutant IDH1 cells
# (§2) HCT116 isogenic IDH1-R132H and IDH1-R132C mutant cells were cultured in growth media (McCoy's 5 A, 10% fetal bovine serum, 1× antibiotic-antimycotic solution and 0.3 mg/mL G418) in 5% CO2 in an incubator at 37° C. To prepare the assay, cells were trypsinized and resuspended in assay media (McCoy's 5 A with no L-glutamine, 10% fetal bovine serum, 1× antibiotic-antimycotic solution and 0.3 mg/mL G418). An aliquot of 10,000 cells/100 μL was transferred to each well of a clear 96-well tissue culture plate. The cells were incubated in 5% CO2 at 37° C. in an incubator overnight to allow for proper cell attachment. An aliquot of 50 μL of compound containing assay media were then added to each well and the assay plate was kept in 5% CO2 at 37° C. in an incubator for 24 hours. The media was then removed from each well and 150 μL of a methanol/water mixture (80/20 v/v) was added to each well. The plates were kept at −80° C. freezer overnight to allow for complete cell lysis. An aliquot of 125 μL of extracted supernatant was analyzed by RapidFire high-throughout-mass spectrometry (Agilent) to determine the cellular 2-HG level. The IC50 of a given compound was calculated by fitting the dose response curve of cellular 2-HG inhibition at a given concentration with the four parameter logistic equation.
# [2] = target: IDH1-R132C recombinant protein (Homo sapiens (Human), UniProt O75874, R132C); assay: IDH1-R132C enzymatic assay (inhibition of NADPH consumption, diaphorase/resazurin readout); assay type: biochemical; settings: read-out: Enzyme IDH1 R132C IC50 (Range)
# Chain of IDH1-R132C recombinant protein (O75874 whole entry R132C): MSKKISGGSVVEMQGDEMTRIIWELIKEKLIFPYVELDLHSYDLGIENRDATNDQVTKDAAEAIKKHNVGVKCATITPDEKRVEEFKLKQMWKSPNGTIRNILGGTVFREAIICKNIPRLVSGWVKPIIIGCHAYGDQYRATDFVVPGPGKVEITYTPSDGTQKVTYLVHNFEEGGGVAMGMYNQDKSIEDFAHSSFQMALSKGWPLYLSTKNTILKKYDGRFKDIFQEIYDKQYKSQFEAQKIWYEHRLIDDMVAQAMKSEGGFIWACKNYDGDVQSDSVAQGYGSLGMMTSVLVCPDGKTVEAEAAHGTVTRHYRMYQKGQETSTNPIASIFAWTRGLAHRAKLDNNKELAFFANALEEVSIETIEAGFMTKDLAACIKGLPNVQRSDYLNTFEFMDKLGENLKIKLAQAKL
# Protocol: Assays were performed in a 384-well black plate. An aliquot of 250 nL of compound was incubated with 10 μL of 30 nM IDH1-R132H or 10 nM IDH1-R132C recombinant protein in assay buffer (50 mM Tris pH=7.5, 150 mM NaCl, 5 mM MgCl2, 0.1% (w/v) Bovine Serum Albumin, and 0.01% Triton X-100) in each well at 25° C. for 15 minutes. After the plate was centrifuged briefly, an aliquot of 10 μL of 2 mM α-ketoglutarate and 20 μM NADPH solution prepared in assay buffer was then added to each well and the reaction was maintained at 25° C. for 45 minutes. An aliquot of 10 μL of diaphorase solution (0.15 U/mL diaphorase and 30 µM Resazurin in assay buffer) was added to each well. The plate was maintained at 25° C. for 15 minutes and then read on a plate reader with excitation and emission wavelengths at 535 nm and 590 nm, respectively. The IC50 of a given compound was calculated by fitting the dose response curve of inhibition of NADPH consumption at a given concentration with the four parameter logistic equation.
# [3] = target: IDH1-R132H recombinant protein (Homo sapiens (Human), UniProt O75874, R132H); assay: IDH1-R132H enzymatic assay (inhibition of NADPH consumption, diaphorase/resazurin readout); assay type: biochemical; settings: read-out: Enzyme IDH1 R132H IC50 (Range)
# Chain of IDH1-R132H recombinant protein (O75874 whole entry R132H): as the sequence (O75874 whole entry R132C) above, with C132H counted along it
# Summary of the method: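 Compound was preincubated 15 min at 25 °C with 30 nM IDH1-R132H or 10 nM IDH1-R132C in Tris pH 7.5 buffer with MgCl2, BSA and Triton X-100. Reaction with 2 mM α-ketoglutarate and 20 μM NADPH (solution concentrations) ran 45 min at 25 °C. Remaining NADPH was detected via diaphorase/resazurin fluorescence (ex 535/em 590 nm), and IC50 came from four-parameter fits.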
# [4] = tested on: HCT116 isogenic IDH1-R132H mutant cells; assay: Cellular 2-HG assay using HCT116 mutant IDH1 cells (R132H), RapidFire mass spectrometry; assay type: cell-based; settings: Homo sapiens, HCT-116; cellular 2-HG level, HCT116 IDH1-R132H cells, 24 hours; read-out: HCT116 IDH1 R132H IC50 (Range)
# Protocol: as §1, §2
structure (smiles),measurement,setting,value
"CC(C)n1cncc1-c1ccnc(N[C@@H](C)c2cc3cc(Cl)ccc3[nH]c2=O)n1 [Compound I-64, (S)-6-chloro-3-(1-((4-(1-isopropyl-1H-imidazol-5-yl)pyrimidin-2-yl)amino)ethyl) quinolin-2(1H)-one]",IC50,[1],100 to 1000 nM
same,IC50,[2],100 to 1000 nM
same,IC50,[3],< 100 nM
same,IC50,[4],100 to 1000 nM
"C[C@H](Nc1nccc(-n2cccc2C(F)(F)F)n1)c1cc2cc(Cl)ccc2[nH]c1=O [Compound I-65, (S)-6-Chloro-3-(1-((4-(2-(triflouromethyl)-1H-pyrrol-1-yl)pyrimidin-2-yl)amino)ethyl) quinolin-2(1H)-one]",IC50,[1],1000 to 10000 nM
same,IC50,[2],1000 to 10000 nM
same,IC50,[3],100 to 1000 nM
same,IC50,[4],100 to 1000 nM
"C[C@H](Nc1nccc(-c2cnnn2C)n1)c1cc2cc(Cl)ccc2[nH]c1=O [Compound I-66, (S)-6-chloro-3-(1-((4-(1-methyl-1H-1,2,3-triazol-5-yl)pyrimidin-2-yl)amino)ethyl)quinolin-2(1H)-one]",IC50,[1],100 to 1000 nM
same,IC50,[2],1000 to 10000 nM
same,IC50,[3],100 to 1000 nM
same,IC50,[4],100 to 1000 nM
C[C@H](Nc1nccc(-c2cncn2Cc2ccccc2)n1)c1cc2cc(Cl)ccc2[nH]c1=O [Compound I-68],IC50,[1],100 to 1000 nM
same,IC50,[2],< 100 nM
same,IC50,[3],< 100 nM
same,IC50,[4],< 100 nM
C[C@H](Nc1nccc(-c2cncn2C)n1)c1cc2cc(Cl)ccc2[nH]c1=O [Compound I-71],IC50,[1],< 100 nM
same,IC50,[2],100 to 1000 nM
same,IC50,[3],< 100 nM
same,IC50,[4],< 100 nM
CC(C)n1nccc1-c1ccnc(N[C@@H](C)c2cc3cc(Cl)ccc3[nH]c2=O)n1 [Compound I-75],IC50,[1],1000 to 10000 nM
same,IC50,[2],100 to 1000 nM
same,IC50,[3],< 100 nM
same,IC50,[4],100 to 1000 nM
CC(C)Cn1cncc1-c1ccnc(N[C@@H](C)c2cc3cc(Cl)ccc3[nH]c2=O)n1 [Compound I-85],IC50,[1],100 to 1000 nM
same,IC50,[2],100 to 1000 nM
same,IC50,[3],100 to 1000 nM
same,IC50,[4],100 to 1000 nM
C[C@H](Nc1nccc(-c2ccn[nH]2)n1)c1cc2cc(Cl)ccc2[nH]c1=O [Compound I-87],IC50,[1],1000 to 10000 nM
same,IC50,[2],1000 to 10000 nM
same,IC50,[3],100 to 1000 nM
same,IC50,[4],100 to 1000 nM
C[C@H](Nc1nccc(-c2cnsc2)n1)c1cc2cc(Cl)ccc2[nH]c1=O [Compound I-88],IC50,[1],1000 to 10000 nM
same,IC50,[2],100 to 1000 nM
same,IC50,[3],< 100 nM
same,IC50,[4],100 to 1000 nM
Cc1ncccc1-c1ccnc(N[C@@H](C)c2cc3cc(Cl)ccc3[nH]c2=O)n1 [Compound I-90],IC50,[1],1000 to 10000 nM
same,IC50,[2],1000 to 10000 nM
same,IC50,[3],100 to 1000 nM
same,IC50,[4],1000 to 10000 nM
C[C@H](Nc1nccc(-c2cncc3ccccc23)n1)c1cc2cc(Cl)ccc2[nH]c1=O [Compound I-92],IC50,[1],1000 to 10000 nM
same,IC50,[2],100 to 1000 nM
same,IC50,[3],100 to 1000 nM
same,IC50,[4],100 to 1000 nM
C[C@H](Nc1nccc(-c2cccnc2)n1)c1cc2cc(Cl)ccc2[nH]c1=O [Compound I-94],IC50,[1],1000 to 10000 nM
same,IC50,[2],100 to 1000 nM
same,IC50,[3],100 to 1000 nM
same,IC50,[4],< 100 nM
C[C@H](Nc1nccc(-c2ccncc2)n1)c1cc2cc(Cl)ccc2[nH]c1=O [Compound I-95],IC50,[1],1000 to 10000 nM
same,IC50,[2],100 to 1000 nM
same,IC50,[3],100 to 1000 nM
same,IC50,[4],100 to 1000 nM
Cc1cnccc1-c1ccnc(N[C@@H](C)c2cc3cc(Cl)ccc3[nH]c2=O)n1 [Compound I-96],IC50,[1],100 to 1000 nM
same,IC50,[2],100 to 1000 nM
same,IC50,[3],< 100 nM
same,IC50,[4],< 100 nM
